Assay results: patent US12642862B2, “Anti-CD79B antibody-drug conjugate, and preparation method therefor and pharmaceutical use thereof” (TUOJIE BIOTECH (SHANGHAI) CO., LTD., priority 2020, dated 2026)
Read-outs that look alike come from different tables or passages of the source.

B1: mAb016: anti-human CD79B mouse monoclonal antibody, hybridoma clone 83C2D4 (antibody, V domains shown)
VH: QVQLQQSGAELARPGASVKLSCKASGYIFTNYGIIWVKQRTGQGLEWIGDIFPGSGNTYYNENFKGKATLTADKSSSTAYMELRSLTSEDSAVYFCSRGELGDFDYWGQGTTLTVSS
VL: VVLMTQTPLSLPVSLGDQASISCRSSQNIVHSDGTTYLEWYLQKPGQSPKLLIYKVSNRFSGVPDRFSGSGSGTDFTLKISRVEAEDLGIYYCFQGSHVPWTFGGGTKLEIK
B2: mAb017: anti-human CD79B mouse monoclonal antibody, clone 86F11F6; VH SEQ ID NO: 5, VL SEQ ID NO: 6 (antibody, listed as Mus musculus, V domains shown)
VH: QVQLQQSGAELARPGASVKLSCKASGYTFTTYGINWVKQRTGQGLEWIGEIYPRSGNIYYNEKFKGKATLTADKSSSTAYMELRSLTSEDSAVYFCARGSDYDGDFAYWGQGTLVTVSA
VL: DVLMTQTPLSLPVSLGDQASISCRSSQSIVHHDGNTYLEWYLQKPGQSPKLLIYKVSNRFSGVPDRFSGSGSGTDFTLKISRVEAEDLGVYYCFQGSHVPWTFGGGTQLEIK

What was measured:
A549 = experiment: Test Example 1 in vitro cytotoxic activity (CTG), A549; type: cell-based; details: for IC50: Homo sapiens
Method: (§1) In this experiment, the ATP content was determined using CTG to reflect the survival condition of the tumor cells. […] The killing effect of the toxin molecule was then assayed according to this condition.
(§2) 1) Cell plating: each of A549, SKBR3 and MDA-MB-468 was digested with pancreatin, resuspended in a culture medium and counted, and 6.33×10^5 cells were added to the medium to make a final volume of 38 mL. 180 μL of the culture medium was plated in a 96-well plate (3903) to obtain a cell density of 3 K/well, and the cells were cultured at 37° C. for 24 h.
(§3) 2 mM solution (10-fold dilution of stock solution in DMSO) was prepared in column 1 of the plate 1, then 10-fold gradient dilution in DMSO was performed in columns 2 to 10. The wells in column 11 were filled with DMSO. 95 μL of corresponding culture medium was added to each well of columns 2 to 11 of the plate 2, and 5 μL of solution was pipetted from columns 2 to 11 of the plate 1 and added to the plate 2. After the solution was mixed well, 20 μL of solution was pipetted and added to the plated cells. Each sample was run in duplicate. The cells were continuously cultured for 5 days.
(§4) 3) CTG assay: the plate was taken out and allowed to equilibrate to room temperature. 90 μL of CTG was added to each well and reacted at room temperature for 10 min away from the light. The luminescence value was read using a microplate reader and IC50 was calculated.

MDA-MB-468 = experiment: Test Example 1 in vitro cytotoxic activity (CTG), MDA-MB-468; type: cell-based; details: for IC50: Homo sapiens
Method: as §1, §2, §3, §4

SKBR3 = experiment: Test Example 1 in vitro cytotoxic activity (CTG), SKBR3; type: cell-based; details: for IC50: Homo sapiens, SK-BR-3, 120 h
Method: as §1, §2, §3, §4

[1] = target: T1, CD79B protein on the surface of DoHH2 cells (Homo sapiens, UniProt P40259); experiment: FACS of anti-human CD79B hybridoma positive clones; type: binding
T1 construct: endogenous in cells; host or cells: DoHH2 (DOHH-2) cells
T1 sequence (P40259 29-229): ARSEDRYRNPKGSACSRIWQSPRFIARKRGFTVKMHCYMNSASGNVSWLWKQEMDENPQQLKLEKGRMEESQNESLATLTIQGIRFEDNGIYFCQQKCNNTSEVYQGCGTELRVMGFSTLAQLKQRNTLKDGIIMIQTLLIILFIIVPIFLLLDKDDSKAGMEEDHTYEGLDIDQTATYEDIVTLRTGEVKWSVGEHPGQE
T1 sequence (P11912 33-226 partner): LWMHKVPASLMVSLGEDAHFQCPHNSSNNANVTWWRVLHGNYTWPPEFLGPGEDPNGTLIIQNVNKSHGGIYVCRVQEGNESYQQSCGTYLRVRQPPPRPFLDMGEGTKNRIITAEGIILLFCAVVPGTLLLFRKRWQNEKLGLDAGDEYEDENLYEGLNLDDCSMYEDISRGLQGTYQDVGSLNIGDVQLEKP
Method: 4) FACS screening The suspension of DoHH2 cells was centrifuged, resuspended in PBS containing 0.1% BSA, and counted. The test serum was added, and the cells were incubated at room temperature for 60 min and washed. Then Anti-Mouse IgG (Fc specific)-FITC secondary antibody was added, and the cells were incubated at room temperature for 30 min away from the light, washed three times, gently resuspended in PBS containing 0.1% BSA, and loaded on the machine for assay.
(§5) 5) Identification of hybridoma positive clones A plurality of specific antibodies against human CD79B antigen were obtained; and 17 strains of hybridomas having strongest binding force to ELISA and FACS in assays were taken for production and purification of antibodies. Specific antibodies against monkey CD79B antigen were also obtained; and 4 strains of hybridomas having strongest binding force to ELISA and FACS in assays were taken for production and purification of antibodies. Assay results of anti-monkey CD79B hybridoma positive clone cells by FACS are shown in Table 4. mIgG was used as negative control in the both assays.

human CD79B [2] = target: T2, human CD79B (Homo sapiens, UniProt P40259); experiment: ELISA of purified anti-human CD79B mouse monoclonal antibodies; type: binding; design: the extracellular region (ECD) of human CD79B comprises 159 amino acids (Met1-Asp159); made in house; host or cells: 293F cells; details: purified antibodies diluted 1:10 from 100 nM; FIG. 8
T2 sequence (P40259 29-159 limits assumed): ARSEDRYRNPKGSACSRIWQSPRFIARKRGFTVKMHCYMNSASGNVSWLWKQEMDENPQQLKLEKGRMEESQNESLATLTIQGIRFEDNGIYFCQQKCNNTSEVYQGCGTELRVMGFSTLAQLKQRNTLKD
Method: (§6) 2) Assay on anti-human CD79B mouse monoclonal antibodies by ELISA A 96-well plate was coated with 1 μg/mL antigen at 50 μL/well and incubated in a refrigerator at 4° C. overnight. The next day, the coated antigen plate was washed once (washing solution: 1×PBST). After washing, the plate was blocked with 1% BSA blocking solution prepared in 1×PBST at 37° C. for 1 h. After washing the plate 3 times with 1×PBST, 50 μL of antibody diluted in a 1:10 ratio from 100 nM was added, and the plate was incubated in an incubator at 37° C. for 1 h. After washing the plate 3 times with 1×PBST, 100 μL of goat anti-mouse secondary antibody diluted in a 1:5000 ratio was added, and the plate was incubated in an incubator at 37° C. for 0.5 h. After washing the plate, TMB color development solutions A and B were mixed in a 1:1 ratio for color development. 15 min later, the color development reaction was stopped with 1 N hydrochloric acid. […] value was read at 450 nm on a Spectra Max M5 microplate reader.

[3] = target: T1, CD79B protein on the surface of DoHH2 cells; experiment: FACS of purified anti-human CD79B mouse monoclonal antibodies on DoHH2 cells; type: binding; details: for FACS binding force: antibodies diluted 1:10 from 100 nM, FIGS. 9A, 9B; for FACS binding force compared with SN8: positive control antibody SN8
Method: 3) Assay on anti-human CD79B mouse monoclonal antibodies by FACS The cell suspension of DoHH2 cells was centrifuged, resuspended in PBS containing 0.1% BSA, and counted. 100 μL of antibody diluted in a 1:10 ratio from 100 nM was added, and the cells were incubated at room temperature for 1 h and washed three times. Then Anti-Mouse IgG (Fc specific)-FITC secondary antibody was added, and the cells were incubated at room temperature for 30 min away from the light, washed three times, gently resuspended in PBS containing 0.1% BSA, and loaded on the machine for assay. […] The specific data are shown in FIGS. 9A and 9B, in which hIgG1 is a negative control antibody and SN8 is a positive control antibody. SN8 is an antibody (reference sequence source: US20170362318A) used in the antibody-drug conjugate polatuzumab vedotin developed by Roche pharmaceutical. Polatuzumab vedotin has been approved by the FDA for marketing.

human CD79B [4] = target: T2, human CD79B; experiment: ELISA of anti-human CD79B hybridoma positive clones; type: binding; design: the extracellular region (ECD) of human CD79B comprises 159 amino acids (Met1-Asp159); made in house; host or cells: 293F cells; details: hybridoma cell supernatant, read at 450 nm
Method: as §6, with “3)” for “2) Assay on anti-human CD79B mouse monoclonal antibodies by”, “ELISA screening” for “ELISA”, “the test cell supernatant” for “antibody diluted in a 1:10 ratio from 100 nM”
as §5

Molecule | Mean fluorescence value [1] | ELISA binding force (human CD79B [2]) | FACS binding force [3] | FACS binding force compared with SN8 [3] | Results (OD450) (human CD79B [4]) | further results
C=C1C[C@@H]2CC[C@@]34C[C@H]5O[C@H]6[C@@H](O3)[C@H]3O[C@H](CC[C@@H]3O[C@H]6[C@H]5O4)CC(=O)C[C@@H]3[C@@H](OC)[C@@H](C[C@H](O)CN)O[C@H]3C[C@H]3O[C@@H](CC[C@@H]1O2)C[C@@H](C)C3=C [Eribulin, reference compound] | – | – | – | – | – | IC50 (A549; 120 h, A549, 5 days, CTG, read-out: IC50): 0.661 nM; IC50 (MDA-MB-468; 120 h, MDA-MB-468, 5 days, CTG, read-out: IC50): 0.482 nM; IC50 (SKBR3; SKBR3, 5 days, CTG, read-out: IC50): 0.715 nM
C=C1C[C@@H]2CC[C@@]34C[C@H]5O[C@H]6[C@@H](O3)[C@H]3O[C@H](CC[C@@H]3O[C@H]6[C@H]5O4)CC(=O)C[C@@H]3[C@@H](OC)[C@@H](C[C@@H](CN)OC)O[C@H]3C[C@H]3O[C@@H](CC[C@@H]1O2)C[C@@H](C)C3=C [D-1] | – | – | – | – | – | Maximum inhibition (%) (A549; A549, 5 days, CTG): 81.34%; IC50 (A549; A549, 120 h): 0.515 nM; IC50 (MDA-MB-468; MDA-MB-468, 120 h): 0.183 nM; Maximum inhibition (%) (MDA-MB-468; MDA-MB-468, 5 days, CTG): 88.01%; IC50 (SKBR3): 0.205 nM; Maximum inhibition (%) (SKBR3; SKBR3, 5 days, CTG): 96.87%; killing effect compared with eribulin (SKBR3; three tumor cell lines SKBR3, MDA-MB-468 and A549): good killing effect in three tumor cell lines and is significantly superior to the positive drug eribulin
B1 | 9990 | strongest ELISA binding force | strongest FACS binding force | superior binding force to SN8 | 3.46 | –
B2 | 8132 | strongest ELISA binding force | strongest FACS binding force | superior binding force to SN8 | 3.80 | –
